Results: patent US20070173461A1, “Glycoside prodrug of 5-aminosalicylic acid” (Nippon Shinyaku Co., Ltd., priority 2004, published 2007)
Values belong to the molecule of their own block, whether it stands above or below them.

Experiments:
[1] = Measurement of plasma concentration of 5-ASA (HPLC) after administration to rats; assay type: in vivo, rat; details: for Plasma concentration of 5-ASA after oral administration (in words, FIG. 1): rats, p.o., 50 mg/kg as 5-ASA
Description: To SD male rats at 7 weeks of age, 5-ASA was intravenously administered as a test drug, and the compound [1], the compound [2], the compound [3] or Pentasa ™ was orally administered at a dose of 50 mg/kg as5-ASA. The plasma concentration of 5-ASA was measured by high performance liquid chromatography (HPLC). As for Pentasa (registered trademark), granules obtained by pulverizing Pentasa (registered trademark) tablet were used.

[2] = Amount of 5-ASA in cecal, proximal colonic, distal colonic and rectal contents after oral administration; assay type: in vivo, rat; details: rats, p.o., 50 mg/kg as 5-ASA; compared with Pentasa and 5-ASA; FIGS. 2-5
Description: To SD male rats at 7 weeks of age, the compound [1], Pentasa ™ and 5-ASA were orally administered at a dose of 50 mg/kg as 5-ASA, and the contents in the cecum, the proximal colon, the distal colon and the rectum were homogenated and centrifuged. Then, the amount of 5-ASA in the respective sites of the large intestine was measured by high performance liquid chromatography (HPLC). As for Pentasa ™, granules obtained by pulverizing Pentasa ™ tablet were used.

TNBS-induced colitis = experiment: Trinitrobenzenesulfonic acid (TNBS)-induced colitis in rats; assay type: in vivo, rat; details: 3 days after TNBS, female SD rats
Description: To a female SD rat fasted for 24 hours, an aqueous solution of TNBS/50% ethanol (30 mg/0.25 ml/rat) was administered in the colon at 8 cm from the anus using a probe for oral administration under pentobarbital anesthesia to induce colitis. At 3 days after the administration of TNBS, the colon was excised, and the wet weight of the colon of 8 cm long from the anus was weighed. The degree of colitis onset was scored in accordance with the method of Wallace et al. (Gastroenterology 96, 29-36 (1989)). As the test compounds, Pentasa ™ at doses of 30 mg/kg and 100 mg/kg and compound [1] at doses of 61.8 mg/kg and 205.9 mg/kg (corresponding to 30 mg/kg and 100 mg/kg in terms of 5-ASA) were orally administered twice a day (on the day of TNBS administration, once at 4 hours before TNBS administration). Pentasa ™ was administered as granules obtained by pulversing Pentasa ™ tablet.

[3] = Concentration of 5-ASA in colonic tissue and rectal tissue after oral administration; assay type: in vivo, rat; details: rats, p.o., 50 mg/kg as 5-ASA; FIGS. 6 and 7
Description: Further, the compound [2] and Pentasa ™ were orally administered at a dose of 50 mg/kg as 5-ASA, and the colon and the rectum were homogenated and centrifuged. Then, the concentrations of 5-ASA in the colonic tissue and the rectal tissue were measured by high performance liquid chromatography (HPLC). As for Pentasa ™, granules obtained by pulverizing Pentasa ™ tablet were used.

[4] = rat, in vivo; cited from earlier work

AUC ([1]; rat, iv, plasma 5-ASA, SD male rats, i.v., 1 mg/kg, read-out: Area under the curve of concentration (AUC)): 1420 ng·h/mL
Structure (SMILES): Nc1ccc(O)c(C(=O)O)c1 [Compound 5-ASA, 5-Aminosalicylic acid]

Amount of 5-ASA in the respective sites of the large intestine (cecum, proximal colon, distal colon, rectum contents) [2]: highest value
Structure (SMILES): Nc1ccc(O[C@@H]2O[C@H](CO)[C@H](O)[C@H](O)[C@H]2O)c(C(=O)O)c1 [Compound [1], 5-amino-2-(β-D-galactopyranosyloxy)benzoic acid]
Plasma concentration of 5-ASA after oral administration (in words, FIG. 1) [1]: remained low as compared with those of Pentasa | Damage score (TNBS-induced colitis; 61.8 mg/kg (corresponding to 30 mg/kg as 5-ASA) p.o. twice a day): significantly reduced | Increase of the wet weight of the colon (TNBS-induced colitis; 205.9 mg/kg (corresponding to 100 mg/kg as 5-ASA) p.o. twice a day): inhibited the increase of the wet weight of the colon significantly

Concentrations of 5-ASA in the colonic tissue and the rectal tissue [3]: higher as compared with Pentasa
Structure (SMILES): Nc1ccc(O[C@H]2O[C@H](CO)[C@H](O)[C@H](O)[C@H]2O)c(C(=O)O)c1 [[2], 5-amino-2-(α-D-galactopyranosyloxy)benzoic acid]
Plasma concentration of 5-ASA after oral administration (in words, FIG. 1) [1]: remained low as compared with those of Pentasa

Structure (SMILES): Nc1ccc(O[C@@H]2O[C@H](CO)[C@@H](O)[C@H](O)[C@H]2O)c(C(=O)O)c1 [[3], 5-amino-2-(β-D-glucopyranosyloxy)benzoic acid]
Plasma concentration of 5-ASA after oral administration (in words, FIG. 1) [1]: remained low as compared with those of Pentasa

Structure (SMILES): C[C@@H]1C[C@H]2[C@@H]3CCC4=CC(=O)C=C[C@]4(C)[C@@]3(F)[C@@H](O)C[C@]2(C)[C@@]1(O)C(=O)COC1O[C@H](CO)[C@@H](O)[C@H](O)[C@H]1O (stereo partly drawn) [glucose derivative of dexamethasone]
Fraction delivered to the cecum [4]: 60%
